Data set [1] is described as follows: Experiment 4: in vivo pharmacokinetic behavior, rapamycin level in blood. Also on record: species or system male Sprague-Dawley rats. The settings on record: rats, intravenous administration. As to the method:
The in vivo pharmacokinetic behavior of the rapamycin-entrapping nanoparticle composition of Example 1 was evaluated. For animal experiment, male Sprague-Dawley rats weighing 210 to 250 g were used, and 0.3 ml of whole blood was taken from caudal vein every 5, 15 and 30 minutes, and 1, 2, 4, 8 and 24 hours after intravenous and subcutaneous injection of the dose of 5 mg/kg, on the basis of rapamycin. The collected whole blood was treated with the Protein Precipitation (PPT, Progress in Pharmaceutical and Biomedical Analysis, Volume 5, 2003, Pages 199-254) and then centrifuged to obtain 0.15 ml of clear supernatant which was analyzed to check the rapamycin concentration in blood by LC/MS/MS method.
The in vivo pharmacokinetic behavior of the rapamycin-entrapping nanoparticle composition of Example 2 was evaluated by means of the same method as in Experiment 1. However, the composition was administered via oral, intravenous or subcutaneous route in the dose of 10 mg/kg on the basis of rapamycin, and 0.3 ml of whole blood was taken from caudal vein every 15 and 30 minutes, and 1, 2, 4, 8, 24 and 48 hours after administration.

For data set [2] the following is noted: cited from earlier work.
Setting [3] is: male, Sprague-Dawley, rat, whole blood, 10 mg/kg.

Molecules are shown by their SMILES.

Consider 1 compound from patent US9173841B2, “Polymer nanoparticle injection formulation composition containing rapamycin with improved water solubility, preparation method thereof, and anticancer composition for combined use with radiotherapy” (SAMYANG BIOPHARMACEUTICALS CORPORATION, priority 2009, dated 2015).

In general, AUC(0-t) refers to the area under the concentration-time curve up to a stated or last time point. A low value points to less exposure. A word on the AUC(0-inf): it is total exposure, with the tail of the curve extrapolated. Read a low AUC(0-inf) as low exposure. As a reminder, the Cmax is the peak of the concentration-time curve. As usually defined, the Tmax is the time from dosing to the highest level. What is called half-life is the time in which the quantity being followed falls by half. Compound `CO[C@H]1C[C@@H]2CC[C@@H](C)[C@@](O)(O2)C(=O)C(=O)N2CCCC[C@H]2C(=O)O[C@H]([C@H](C)C[C@@H]2CC[C@@H](O)[C@H](OC)C2)CC(=O)[C@H](C)/C=C(\C)[C@@H](O)[C@@H](OC)C(=O)[C@H](C)C[C@H](C)/C=C/C=C/C=C/1C` [rapamycin, Rapamycin] yielded an AUC(0-t) in data set [1] (male, Sprague-Dawley, rat, whole blood, 10 mg/kg on the basis of rapamycin) of 5370 ng·h/mL. Moreover, in data set [1] (setting [3]), the AUC(0-inf) worked out at 5600 ng·h/mL, the maximum concentration (Cmax) was determined as 2890 ng/mL, the time of peak concentration (Tmax) was 0.25 h and the half-life was 10.5 h. In addition, the F in data set [1] (10 mg/kg, free sirolimus intravenous = 100) turned out to be 100%. In addition, in data set [2], the solubility in water was 1 to 2 µg/mL.
